Literature values in US8871812B2, “Therapeutic regimen comprising PEG-interferon, ribavirin and VX-950 for the treatment of hepatitis” (priority 2008, dated 2014).

Tested on: HCV
Details: monotherapy; cited from earlier work

interferon alfa
cases with long term remission: ~25%
